# Laboratory results as given in ChEMBL document CHEMBL3808371, “Design, synthesis and biological evaluation of diaziridinyl quinone isoxazole hybrids” (Eur J Med Chem, 2016).
# Calls of active or inactive are those of the source. No cut-off for these calls is given here.
# Columns and labels:
# [1] = Cytotoxicity against human PC3 cells after 72 hrs by XTT assay; format: functional, cell-based; details: PC-3, 72 h
# [2] = test system: Candida albicans; assay: Antimicrobial activity against Candida albicans MTCC 3017 after 24 hrs by well diffusion method; format: functional; details: MTCC 3017, 24 h
# [3] = test system: Pseudomonas aeruginosa; assay: Antimicrobial activity against Pseudomonas aeruginosa MTCC 2453 after 24 hrs by well diffusion method; format: functional
# [4] = test system: A549; assay: Cytotoxicity against human A549 cells after 72 hrs by XTT assay; format: functional, cell-based; details: A549, 72 h
# [5] = test system: Staphylococcus aureus; assay: Bactericidal activity against Staphylococcus aureus MTCC 96 after 24 hrs by serial dilution method; format: functional; details: MTCC 96, 24 h
# [6] = test system: A549; assay: Selectivity ratio of IC50 for human A549 cells to IC50 for human PC3 cells; format: functional
# [7] = test system: Staphylococcus aureus; assay: Antimicrobial activity against Staphylococcus aureus MLS16 MTCC 2940 after 24 hrs by well diffusion method; format: functional
# [8] = test system: Escherichia coli; assay: Antimicrobial activity against Escherichia coli MTCC 739 after 24 hrs by well diffusion method; format: functional
# [9] = test system: Staphylococcus aureus; assay: Antimicrobial activity against Staphylococcus aureus MTCC 96 after 24 hrs by well diffusion method; format: functional
# [10] = test system: Micrococcus luteus; assay: Bactericidal activity against Micrococcus luteus MTCC 2470 after 24 hrs by serial dilution method; format: functional; details: MTCC 2470, 24 h
# [11] = test system: Staphylococcus aureus; assay: Bactericidal activity against Staphylococcus aureus MLS16 MTCC 2940 after 24 hrs by serial dilution method; format: functional; details: MLS16 MTCC 2940, 24 h
# [12] = test system: Bacillus subtilis; assay: Bactericidal activity against Bacillus subtilis MTCC 121 after 24 hrs by serial dilution method; format: functional; details: MTCC 121, 24 h
# [13] = test system: Micrococcus luteus; assay: Antimicrobial activity against Micrococcus luteus MTCC 2470 after 24 hrs by well diffusion method; format: functional
# [14] = test system: Raoultella planticola; assay: Antimicrobial activity against Klebsiella planticola MTCC 530 after 24 hrs by well diffusion method; format: functional
# [15] = test system: Bacillus subtilis; assay: Antimicrobial activity against Bacillus subtilis MTCC 121 after 24 hrs by well diffusion method; format: functional
# [16] = test system: Raoultella planticola; assay: Bactericidal activity against Klebsiella planticola MTCC 530 after 24 hrs by serial dilution method; format: functional; details: MTCC 530, 24 h
# [17] = test system: Candida albicans; assay: Fungicidal activity against Candida albicans MTCC 3018 after 24 hrs by serial dilution method; format: functional; details: MTCC 3018, 24 h
# [18] = test system: Candida parapsilosis; assay: Fungicidal activity against Candida parapsilosis MTCC 1744 after 24 hrs by serial dilution method; format: functional; details: Lodderomyces parapsilosis, MTCC 1744, 24 h
# [19] = test system: Candida albicans; assay: Fungicidal activity against Candida albicans MTCC 183 after 24 hrs by serial dilution method; format: functional; details: MTCC 183, 24 h
# [20] = test system: Candida albicans; assay: Fungicidal activity against Candida albicans MTCC 7315 after 24 hrs by serial dilution method; format: functional; details: MTCC 7315, 24 h
# [21] = test system: Nakaseomyces glabratus; assay: Antimicrobial activity against Candida glabrata MTCC 3019 after 24 hrs by well diffusion method; format: functional; details: MTCC 3019, 24 h
# [22] = test system: [Candida] aaseri; assay: Fungicidal activity against Candida aaseri MTCC 1962 after 24 hrs by serial dilution method; format: functional; details: Yamadazyma aaseri, MTCC 1962, 24 h
# [23] = test system: Candida albicans; assay: Fungicidal activity against Candida albicans MTCC 3958 after 24 hrs by serial dilution method; format: functional; details: MTCC 3958, 24 h
# [24] = test system: Pichia sporocuriosa; assay: Antimicrobial activity against Issatchenkia hanoiensis MTCC 4755 after 24 hrs by well diffusion method; format: functional; details: MTCC 4755, 24 h
# [25] = test system: Candida albicans; assay: Antimicrobial activity against Candida albicans MTCC 854 after 24 hrs by well diffusion method; format: functional; details: MTCC 854, 24 h
# [26] = test system: Candida albicans; assay: Fungicidal activity against Candida albicans MTCC 854 after 24 hrs by serial dilution method; format: functional; details: MTCC 854, 24 h
# [27] = test system: Candida albicans; assay: Antimicrobial activity against Candida albicans MTCC 3958 after 24 hrs by well diffusion method; format: functional; details: MTCC 3958, 24 h
# [28] = test system: Pichia kudriavzevii; assay: Fungicidal activity against Candida krusei MTCC 3020 after 24 hrs by serial dilution method; format: functional; details: MTCC 3020, 24 h
# [29] = test system: Candida albicans; assay: Fungicidal activity against Candida albicans MTCC 3017 after 24 hrs by serial dilution method; format: functional; details: MTCC 3017, 24 h
# [30] = test system: [Candida] aaseri; assay: Antimicrobial activity against Candida aaseri MTCC 1962 after 24 hrs by well diffusion method; format: functional; details: Yamadazyma aaseri, MTCC 1962, 24 h
# [31] = test system: Candida albicans; assay: Fungicidal activity against Candida albicans MTCC 227 after 24 hrs by serial dilution method; format: functional; details: MTCC 227, 24 h
# [32] = test system: Pichia kudriavzevii; assay: Antimicrobial activity against Candida krusei MTCC 3020 after 24 hrs by well diffusion method; format: functional; details: MTCC 3020, 24 h
# [33] = test system: Candida albicans; assay: Antimicrobial activity against Candida albicans MTCC 4748 after 24 hrs by well diffusion method; format: functional; details: MTCC 4748, 24 h
# [34] = test system: Pichia sporocuriosa; assay: Fungicidal activity against Issatchenkia hanoiensis MTCC 4755 after 24 hrs by serial dilution method; format: functional; details: MTCC 4755, 24 h
# [35] = test system: Candida albicans; assay: Fungicidal activity against Candida albicans MTCC 1637 after 24 hrs by serial dilution method; format: functional; details: MTCC 1637, 24 h
# [36] = test system: Candida albicans; assay: Antimicrobial activity against Candida albicans MTCC 227 after 24 hrs by well diffusion method; format: functional; details: MTCC 227, 24 h
# [37] = test system: Candida albicans; assay: Fungicidal activity against Candida albicans MTCC 4748 after 24 hrs by serial dilution method; format: functional; details: MTCC 4748, 24 h
# [38] = test system: Nakaseomyces glabratus; assay: Fungicidal activity against Candida glabrata MTCC 3019 after 24 hrs by serial dilution method; format: functional; details: MTCC 3019, 24 h
# [39] = test system: Candida albicans; assay: Antimicrobial activity against Candida albicans MTCC 3018 after 24 hrs by well diffusion method; format: functional; details: MTCC 3018, 24 h
# [40] = test system: Candida parapsilosis; assay: Antimicrobial activity against Candida parapsilosis MTCC 1744 after 24 hrs by well diffusion method; format: functional; details: Lodderomyces parapsilosis, MTCC 1744, 24 h
# [41] = test system: Candida albicans; assay: Antimicrobial activity against Candida albicans MTCC 183 after 24 hrs by well diffusion method; format: functional; details: MTCC 183, 24 h
# [42] = test system: Candida albicans; assay: Antimicrobial activity against Candida albicans MTCC 7315 after 24 hrs by well diffusion method; format: functional; details: MTCC 7315, 24 h
# [43] = test system: Candida albicans; assay: Antimicrobial activity against Candida albicans MTCC 1637 after 24 hrs by well diffusion method; format: functional; details: MTCC 1637, 24 h
# [44] = test system: Staphylococcus aureus; assay: Antibiofilm activity against Staphylococcus aureus MTCC 96 after 24 hrs by crystal violet staining based assay; format: functional, organism-based; details: MTCC 96, 24 h
# [45] = test system: Bacillus subtilis; assay: Antibiofilm activity against Bacillus subtilis MTCC 121 after 24 hrs by crystal violet staining based assay; format: functional, organism-based; details: MTCC 121, 24 h
# [46] = test system: Staphylococcus aureus; assay: Antibiofilm activity against Staphylococcus aureus MLS16 MTCC 2940 after 24 hrs by crystal violet staining based assay; format: functional, organism-based; details: MLS16 MTCC 2940, 24 h
# [47] = test system: Raoultella planticola; assay: Antibiofilm activity against Klebsiella planticola MTCC 530 after 24 hrs by crystal violet staining based assay; format: functional, organism-based; details: MTCC 530, 24 h
# [48] = test system: Micrococcus luteus; assay: Antibiofilm activity against Micrococcus luteus MTCC 2470 after 24 hrs by crystal violet staining based assay; format: functional, organism-based; details: MTCC 2470, 24 h
# [49] = test system: A549; assay: Cytotoxicity against human A549 cells; format: functional, cell-based
# [50] = Cytotoxicity against human PC3 cells; format: functional, cell-based; details: PC-3
structure (smiles),measurement,setting,value
CN(Cc1ccc(F)cc1)C(=O)c1ccc(-c2cc(C3=C(N4CC4)C(=O)C=C(N4CC4)C3=O)no2)s1,IC50,[1],500 nM
same,MIC,[2],> 125 µg/mL
same,MIC,"[3]; MTCC 2453, 24 h",> 125 µg/mL
same,IC50,[4],15300 nM
same,MBC,[5],> 125 µg/mL
same,Ratio IC50,[6],30
same,MIC,"[7]; MLS16 MTCC 2940, 24 h",31.2 µg/mL
same,MIC,"[8]; MTCC 739, 24 h",> 125 µg/mL
same,MIC,"[9]; MTCC 96, 24 h",62.5 µg/mL
same,MBC,[10],> 125 µg/mL
same,MBC,[11],> 125 µg/mL
same,MBC,[12],62.5 µg/mL
same,MIC,"[13]; MTCC 2470, 24 h",31.2 µg/mL
same,MIC,"[14]; MTCC 530, 24 h",> 125 µg/mL
same,MIC,"[15]; MTCC 121, 24 h",15.6 µg/mL
same,MBC,[16],> 125 µg/mL
Clc1ccc(COC(Cn2ccnc2)c2ccc(Cl)cc2Cl)c(Cl)c1 (stereo not given) [MICONAZOLE],MFC,[17],15.6 µg/mL
same,MFC,[18],7.8 µg/mL
same,MFC,[19],15.6 µg/mL
same,MFC,[20],7.8 µg/mL
same,MIC,[21],7.8 µg/mL
same,MFC,[22],7.8 µg/mL
same,MIC,[2],7.8 µg/mL
same,MFC,[23],7.8 µg/mL
same,MIC,[3],inactive
same,MIC,[24],7.8 µg/mL
same,MIC,[25],7.8 µg/mL
same,MFC,[26],7.8 µg/mL
same,MIC,[27],7.8 µg/mL
same,MFC,[28],7.8 µg/mL
same,MFC,[29],15.6 µg/mL
same,MIC,[30],7.8 µg/mL
same,MIC,[7],inactive
same,MFC,[31],7.8 µg/mL
same,MIC,[8],inactive
same,MIC,[9],inactive
same,MIC,[32],7.8 µg/mL
same,MIC,[33],7.8 µg/mL
same,MFC,[34],7.8 µg/mL
same,MFC,[35],15.6 µg/mL
same,MIC,[13],inactive
same,MIC,[14],inactive
same,MIC,[36],7.8 µg/mL
same,MFC,[37],15.6 µg/mL
same,MFC,[38],15.6 µg/mL
same,MIC,[39],7.8 µg/mL
same,MIC,[15],inactive
same,MIC,[40],7.8 µg/mL
same,MIC,[41],7.8 µg/mL
same,MIC,[42],7.8 µg/mL
same,MIC,[43],7.8 µg/mL
O=C1C=C(N2CC2)C(=O)C(c2cc(-c3ccc(C(=O)N4CCOCC4)s3)on2)=C1N1CC1,MFC,[17],125 µg/mL
same,MFC,[18],62.5 µg/mL
same,MFC,[19],31.2 µg/mL
same,MFC,[20],125 µg/mL
same,IC50,[1],1400 nM
same,MIC,[21],31.2 µg/mL
same,MFC,[22],125 µg/mL
same,MIC,[2],7.8 µg/mL
same,MFC,[23],62.5 µg/mL
same,MIC,"[3]; MTCC 2453, 24 h",> 125 µg/mL
same,MIC,[24],15.6 µg/mL
same,IC50,[44],2500 nM
same,MIC,[25],7.8 µg/mL
same,MFC,[26],15.6 µg/mL
same,MIC,[27],15.6 µg/mL
same,IC50,[4],1500 nM
same,MFC,[28],15.6 µg/mL
same,MBC,[5],7.8 µg/mL
same,MFC,[29],15.6 µg/mL
same,MIC,[30],31.2 µg/mL
same,MIC,"[7]; MLS16 MTCC 2940, 24 h",3.9 µg/mL
same,MFC,[31],31.2 µg/mL
same,MIC,"[8]; MTCC 739, 24 h",> 125 µg/mL
same,MIC,"[9]; MTCC 96, 24 h",3.9 µg/mL
same,IC50,[45],2800 nM
same,MIC,[32],7.8 µg/mL
same,MIC,[33],31.2 µg/mL
same,MFC,[34],31.2 µg/mL
same,MFC,[35],62.5 µg/mL
same,MBC,[10],31.2 µg/mL
same,MBC,[11],3.9 µg/mL
same,MBC,[12],3.9 µg/mL
same,MIC,"[13]; MTCC 2470, 24 h",15.6 µg/mL
same,IC50,[46],1900 nM
same,MIC,"[14]; MTCC 530, 24 h",7.8 µg/mL
same,IC50,[47],5100 nM
same,MIC,[36],7.8 µg/mL
same,MFC,[37],125 µg/mL
same,MFC,[38],125 µg/mL
same,IC50,[48],9800 nM
same,MIC,[39],62.5 µg/mL
same,MIC,"[15]; MTCC 121, 24 h",3.9 µg/mL
same,MIC,[40],15.6 µg/mL
same,MIC,[41],15.6 µg/mL
same,MBC,[16],15.6 µg/mL
same,MIC,[42],62.5 µg/mL
same,MIC,[43],31.2 µg/mL
COc1ccc(C[C@H](N)C(=O)N[C@H]2[C@@H](O)[C@H](n3cnc4c(N(C)C)ncnc43)O[C@@H]2CO)cc1 [PUROMYCIN],IC50,[49],600 nM
same,IC50,[50],700 nM
